In US20260242391A1 (priority 2023, published 2026):

Columns and labels:
HL-60 = HL-60 differentiation potency; format: cell-based; conditions: Homo sapiens
in vitro = conditions: human

| Compound | EC50 (HL-60) [nM] | IC50 (in vitro) [nM] | IC50 (in vitro; HL-60 cells) [nM] |
| --- | --- | --- | --- |
| C[C@H]1[C@@H](OCc2ccc(C(=O)N[C@H]3C[C@@H](C(=O)O)C3)cc2)O[C@@H]2O[C@@]3(C)CC[C@H]4[C@H](C)CC[C@@H]1[C@@]24OO3 [Compound 278, (1R,3s)-3-(4-((((3R,5aS,6R,8aS, 9R,10S,12R, 12aR)-3,6,9-trimethyldeca-hydro-12H-3,12-epoxy[1,2]dioxepino[4,3-i]isochromen-10-yl)oxy)methyl)benzamido) cyclobutane-1-carboxylic acid] | 354 | > 20000 |  |
| C[C@H]1[C@@H](Oc2ccc([C@@H](C)C(=O)O)cc2F)O[C@@H]2O[C@@]3(C)CC[C@H]4[C@H](C)CC[C@@H]1[C@@]24OO3 [Compound 279, (R)-2-(3-fluoro-4-(((3R,5aS,6R,8aS, 9R,10S,12R, 12aR)-3,6,9-trimethyldeca-hydro-12H-3,12-epoxy[1,2]dioxepino[4,3-i]isochromen-10-yl)oxy)phenyl) propanoic acid] | 26.8 | 4860 |  |
| Cc1cc(C(=O)O)cc(Cl)c1CO[C@H]1O[C@@H]2O[C@@]3(C)CC[C@H]4[C@H](C)CC[C@@H]([C@H]1C)[C@@]24OO3 [Compound 280, 3-chloro-5-methyl-4-((((3R,5aS,6R,8aS, 9R,10S,12R, 12aR)-3,6,9-trimethyldeca-hydro-12H-3,12-epoxy[1,2]dioxepino[4,3-i]isochromen-10-yl)oxy)methyl) benzoic acid] | 246 | 3220 |  |
| C[C@H]1[C@@H](OCc2ccc(C(=O)N[C@H](C(=O)O)C(C)(C)C)cc2)O[C@@H]2O[C@@]3(C)CC[C@H]4[C@H](C)CC[C@@H]1[C@@]24OO3 [Compound 281, (S)-3,3-dimethyl-2-(4-((((3R,5aS,6R,8aS, 9R,10S,12R, 12aR)-3,6,9-trimethyldeca-hydro-12H-3,12-epoxy[1,2]dioxepino[4,3-i]isochromen-10-yl)oxy)methyl)benzamido) butanoic acid] | 112 | 430 |  |
| C[C@H]1[C@@H](Oc2ccc([C@H](C)C(=O)O)cc2F)O[C@@H]2O[C@@]3(C)CC[C@H]4[C@H](C)CC[C@@H]1[C@@]24OO3 [Compound 282, (S)-2-(3-fluoro-4-(((3R,5aS,6R,8aS, 9R,10S,12R, 12aR)-3,6,9-trimethyldeca-hydro-12H-3,12-epoxy[1,2]dioxepino[4,3-i]isochromen-10-yl)oxy)phenyl) propanoic acid] | 12.7 | 4820 |  |
| C[C@H]1[C@@H](Oc2ccc(C3(C(=O)O)COC3)cc2)O[C@@H]2O[C@@]3(C)CC[C@H]4[C@H](C)CC[C@@H]1[C@@]24OO3 [Compound 283, 3-(4-(((3R,5aS,6R,8aS, 9R,10S,12R, 12aR)-3,6,9-trimethyldeca-hydro-12H-3,12-epoxy[1,2]dioxepino[4,3-i]isochromen-10-yl)oxy)phenyl) oxetane-3-carboxylic acid] | 40.3 | > 20000 |  |
| C[C@H]1[C@@H](OCc2ccc(C(=O)NC(C)(C)C(=O)O)cc2)O[C@@H]2O[C@@]3(C)CC[C@H]4[C@H](C)CC[C@@H]1[C@@]24OO3 [Compound 284, 2-methyl-2-(4-((((3R,5aS,6R,8aS, 9R,10S,12R, 12aR)-3,6,9-trimethyldeca-hydro-12H-3,12-epoxy[1,2]dioxepino[4,3-i]isochromen-10-yl)oxy)methyl)benzamido) propanoic acid] | 524 | > 20000 |  |
| C[C@H]1[C@@H](OCc2ccc(C(=O)NCC3(C(=O)O)CCC3)cc2)O[C@@H]2O[C@@]3(C)CC[C@H]4[C@H](C)CC[C@@H]1[C@@]24OO3 [Compound 286, 1-((4-((((3R,5aS,6R,8aS, 9R,10S,12R, 12aR)-3,6,9-trimethyldeca-hydro-12H-3,12-epoxy[1,2]dioxepino[4,3-i]isochromen-10-yl)oxy)methyl)benzamido)methyl) cyclobutane-1-carboxylic acid] | 18 | 1530 |  |
| C[C@H]1[C@@H](OC[C@H]2CC[C@@H](C(=O)Nc3ccc(C(=O)O)cc3)CC2)O[C@@H]2O[C@@]3(C)CC[C@H]4[C@H](C)CC[C@@H]1[C@@]24OO3 [Compound 287, 4-((1R,4s)-4-((((3R,5aS,6R,8aS, 9R,10S,12R, 12aR)-3,6,9-trimethyldeca-hydro-12H-3,12-epoxy[1,2]dioxepino[4,3-i]isochromen-10-yl)oxy)methyl)cyclohexane-1-carboxamido) benzoic acid] | 60.8 | 1000 |  |
| C[C@H]1[C@@H](OCc2ccc(C(=O)N[C@@H]3C[C@H](C(=O)O)C[C@H]3O)cc2)O[C@@H]2O[C@@]3(C)CC[C@H]4[C@H](C)CC[C@@H]1[C@@]24OO3 [Compound 288, (1S,3R,4R)-3-hydroxy-4-(4-((((3R,5aS,6R,8aS, 9R,10S,12R, 12aR)-3,6,9-trimethyldeca-hydro-12H-3,12-epoxy[1,2]dioxepino[4,3-i]isochromen-10-yl)oxy)methyl)benzamido) cyclopentane-1-carboxylic acid] | 5580 | > 20000 |  |
| C[C@H]1[C@@H](Oc2ccc(CC(=O)N[C@@H]3CC[C@H](C(=O)O)C3)cc2)O[C@@H]2O[C@@]3(C)CC[C@H]4[C@H](C)CC[C@@H]1[C@@]24OO3 [Compound 289, (1S,3R)-3-(2-(4-(((3R,5aS,6R,8aS, 9R,10S,12R, 12aR)-3,6,9-trimethyldeca-hydro-12H-3,12-epoxy[1,2]dioxepino[4,3-i]isochromen-10-yl)oxy)phenyl)acetamido) cyclopentane-1-carboxylic acid] | 27.6 | > 20000 |  |
| C[C@H]1[C@@H](OCc2ccc(C(=O)N[C@@H]3CCC[C@@H](C(=O)O)C3)cc2)O[C@@H]2O[C@@]3(C)CC[C@H]4[C@H](C)CC[C@@H]1[C@@]24OO3 [Compound 290, (1R,3R)-3-(4-((((3R,5aS,6R,8aS, 9R,10S,12R, 12aR)-3,6,9-trimethyldeca-hydro-12H-3,12-epoxy[1,2]dioxepino[4,3-i]isochromen-10-yl)oxy)methyl)benzamido) cyclohexane-1-carboxylic acid] | 83.4 | 11300 |  |
| C[C@H]1[C@@H](OCc2ccc(C(=O)NC3CC4(C3)CC(C(=O)O)C4)cc2)O[C@@H]2O[C@@]3(C)CC[C@H]4[C@H](C)CC[C@@H]1[C@@]24OO3 (stereo partly drawn) [Compound 291, 6-(4-((((3R,5aS,6R,8aS, 9R,10S,12R, 12aR)-3,6,9-trimethyldeca-hydro-12H-3,12-epoxy[1,2]dioxepino[4,3-i]isochromen-10-yl)oxy)methyl)benzamido)spiro [3.3]heptane-2-carboxylic acid] | 47.8 | 13400 |  |
| C[C@H]1[C@@H](Oc2ccc(CC(=O)N[C@H]3C[C@@H](C(=O)O)C3)cc2)O[C@@H]2O[C@@]3(C)CC[C@H]4[C@H](C)CC[C@@H]1[C@@]24OO3 [Compound 292, (1R,3s)-3-(2-(4-(((3R,5aS,6R,8aS, 9R,10S,12R, 12aR)-3,6,9-trimethyldeca-hydro-12H-3,12-epoxy[1,2]dioxepino[4,3-i]isochromen-10-yl)oxy)phenyl)acetamido) cyclobutane-1-carboxylic acid] | 42.9 |  | > 20000 |
| C[C@H]1[C@@H](OCc2ccc(C(=O)NC34CCC(C(=O)O)(C3)C4)cc2)O[C@@H]2O[C@@]3(C)CC[C@H]4[C@H](C)CC[C@@H]1[C@@]24OO3 [Compound 293, 4-(4-((((3R,5aS,6R,8aS, 9R,10S,12R, 12aR)-3,6,9-trimethyldeca-hydro-12H-3,12-epoxy[1,2]dioxepino[4,3-i]isochromen-10-yl)oxy)methyl)benzamido) bicyclo[2.1.1] hexane-1-carboxylic acid] | 43.2 | > 20000 |  |
| C[C@H]1[C@@H](OCc2ccc(NC(=O)[C@H]3CC[C@@H](C(=O)O)C3)cc2)O[C@@H]2O[C@@]3(C)CC[C@H]4[C@H](C)CC[C@@H]1[C@@]24OO3 [Compound 294, (1R,3S)-3-((4-((((3R,5aS,6R,8aS, 9R,10S,12R, 12aR)-3,6,9-trimethyldeca-hydro-12H-3,12-epoxy[1,2]dioxepino[4,3-i]isochromen-10-yl)oxy)methyl)phenyl)carbamoyl) cyclopentane-1-carboxylic acid] | 65 | 15800 |  |
| C[C@H]1[C@@H](OC[C@H]2CC[C@@H](C(=O)NC34CCC(C(=O)O)(C3)C4)CC2)O[C@@H]2O[C@@]3(C)CC[C@H]4[C@H](C)CC[C@@H]1[C@@]24OO3 [Compound 295, 4-((1R,4s)-4-((((3R,5aS,6R,8aS, 9R,10S,12R, 12aR)-3,6,9-trimethyldeca-hydro-12H-3,12-epoxy[1,2]dioxepino[4,3-i]isochromen-10-yl)oxy)methyl)cyclohexane-1-carboxamido) bicyclo[2.1.1] hexane-1-carboxylic acid] | 197 | > 20000 |  |
| C[C@H]1[C@@H](OCc2ccc(N3C(=O)N(CC(=O)O)C(C)(C)C3=O)cc2)O[C@@H]2O[C@@]3(C)CC[C@H]4[C@H](C)CC[C@@H]1[C@@]24OO3 [Compound 296, 2-(5,5-dimethyl-2,4-dioxo-3-(4-((((3R,5aS,6R,8aS, 9R,10S,12R, 12aR)-3,6,9-trimethyldeca-hydro-12H-3,12-epoxy[1,2]dioxepino[4,3-i]isochromen-10-yl)oxy)methyl)phenyl)imidazolidin-1-yl)acetic acid] | 2910 | > 20000 |  |
| C[C@H]1[C@@H](OC[C@H]2CC[C@@H](C(=O)NCC3(C(=O)O)CCC3)CC2)O[C@@H]2O[C@@]3(C)CC[C@H]4[C@H](C)CC[C@@H]1[C@@]24OO3 [Compound 297, 1-(((1R,4s)-4-((((3R,5aS,6R,8aS, 9R,10S,12R, 12aR)-3,6,9-trimethyldeca-hydro-12H-3,12-epoxy[1,2]dioxepino[4,3-i]isochromen-10-yl)oxy)methyl)cyclohexane-1-carboxamido)methyl) cyclobutane-1-carboxylic acid] | 31.7 | 17700 |  |
| C[C@H]1[C@@H](OCc2ccc(C(=O)O)c(OC(F)(F)F)c2)O[C@@H]2O[C@@]3(C)CC[C@H]4[C@H](C)CC[C@@H]1[C@@]24OO3 [Compound 298, 2-(trifluoro-methoxy)-4-((((3R,5aS,6R,8aS, 9R,10S,12R, 12aR)-3,6,9-trimethyldeca-hydro-12H-3,12-epoxy[1,2]dioxepino[4,3-i]isochromen-10-yl)oxy)methyl) benzoic acid] | 53.1 | > 20000 |  |
